Source: patent US6211151A, “Peptides with organo-protective activity, a process for preparation thereof and their use in therapy” (priority 1992, dated 2001)
No end group written: not given here.

Legend:
female mice = test: Acute toxicity; format: in vivo; conditions: 8, 25 and 50 μg/kg b.w., i.v.; observed 15 days
Experimental: Acute toxicity of synthetic peptides was determined in female mice (weight ca. 20 g). Groups of 6 animals were used for each experiment and control.
Peptides Seq.Id.No: 2,3,4 and 6 were applied in a dosage of 8, 25 and 50 μg/kg b.w., i.v. Control group was treated with saline (0.9%, 5.0 ml/kg b.w.).

[1] = test system: NMRI-Hannover female mice; test: Influence on vitamin A induced malformation; format: in vivo; conditions: peptide alone, 10 μg or 10 ng/kg b.w., i.p., tenth day of pregnancy
Experimental: 12. Influence on induced malformation
NMRI-Hannover female mice, two months old, 25 g b.w., but not previously exposed to copulation were used in all experiments. The female mice in the estrus phase were mated overnight with well experienced healthy male mice. The mice were sacrified after 20 days of pregnancy.
Vitamin A was applied in a dose of 15700 U/kg b.w., i.m., at tenth day of the pregnancy (0.05 ml/kg b.w.). Peptide Seq.Id.No: 4 was given simultaneously in a dosage of 10 μg or 10 ng/kg b.w.,i.p.
Control: saline 5.0 ml/kg b.w., i.p.
Animals non treated with vitamin A receiving at the same time i.p. saline or peptide 4 in the same dosage served as healthy control.

[2] = test system: Albino Wistar (male) rats; test: Gastric ulcer induced by restraint stress; format: in vivo, rat; conditions: 10 μg or 10 ng/kg b.w., i.p. or i.g., 1 hour before 48 hours immobilization; even at 10 ng/kg
Experimental: 1.) Gastric ulcer induced by restraint stress
Albino Wistar (male) rats (180-200 g), were used in the experiments. All the animals were immobilized in a supine position for 48 hours at room temperature. Immediately thereafter they were sacrified and the lesions measured. The peptides Seq. Id. No: 4, 6 and 2 were applied in dosage of 10 μg or 10 ng/kg b.w., i.p. or i.g. 1 hour before noxious procedure.

Wistar male rats = test: Turpentine induced buccal edemas; format: in vivo, rat; conditions: 10 μg/kg b.w., i.p. and i.g., 1 hour before turpentine; measured 24 hours after induction
Experimental: 3. Turpentine induced buccal edemas
Wistar male rats (180-240 g), N=10 in each group. Turpentine was given intramucosally 0.02 ml/rat. Control: 0.9% saline intramucosally (0.02 ml/rat, 2×). Peptides Seq. Id. No: 2 and 4 were applied in a dose of 10 μg and 10 ng/kg, i.p. and i.g., 1 hour before turpentine. Buccal edemas were measured 24 hours after edema induction. Statistical analysis: Mann-Whitney test. The investigated peptides were effective in a dosage of 10 μg/kg b.w.

Row | Substance | signs of toxicity or death (female mice) | malformation in animals not treated with vitamin A [1] | protection against restraint stress gastric lesions [2] | effect on buccal edemas (Wistar male rats)
1 | EPPPLKPA [Seq. Id. No: 6] | no signs of toxicity or death | – | – | –
2 | LEPPPLKPADALGV [Seq. Id. No: 4] | no signs of toxicity or death | No malformation | – | –
3 | LEPPPLKPADDALGV [Seq.Id.No: 3] | no signs of toxicity or death | – | – | –
4 | Seq. Id. No: 2: synthetic peptide of 8 to 15 amino acid residues with BPC-type activity; sequence not printed in this text (GEPPPGKPADDAGLV) | no signs of toxicity or death | – | strongly protective | effective
